In the supplement of paper PMC10627819:

Legend:
B. subtilis 168 = assay: fitness (endpoint OD595 vs no drug) (fraction); higher = more growth
Method in brief: (§1)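 Bacterial growth was followed in 384-well plates seeded at OD595 0.01, with 30 µl per well, or 55 µl for S. pneumoniae, in TSB, LB Lennox or CY at 37 °C. OD595 was read every 30 min for 14 h, and each reading had the first reading subtracted as background. Fitness is the background-corrected optical density at entry into stationary phase divided by the robust mean of the no-drug control wells. This ratio is capped at 1.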

S. aureus DSM 20231 [1] = assay: as above
Method in brief: as §1

S. aureus Newman = assay: as above
Method in brief: as §1

S. aureus DSM 20231 [2] = assay: Bliss interaction score (quartile over a dose matrix) (fitness difference); higher = more antagonism (negative = synergy)
Method in brief: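 Fitness was derived from optical density at entry into stationary phase, divided by the robust mean of the no-drug wells on the same plate. That reading was taken as OD595, and the ratio was capped at 1. Single-drug fitness was inferred from the combination data. The Bliss score, observed fitness minus the expected product of single-drug fitness, was summarised as quartiles over technical, biological and donor/recipient replicates.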
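For Bliss interaction score (quartile over a dose matrix) in this document: first quartile when negative (synergy) and third quartile when positive (antagonism).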

N[C@@H]1CONC1=O [Cycloserine D] + CN[C@@H]1[C@H](O)[C@H](NC)[C@H]2O[C@@]3(O)C(=O)C[C@@H](C)O[C@H]3O[C@@H]2[C@H]1O [Spectinomycin]
fitness
Settings | first compound 0.125 µg/mL | first compound 0.25 µg/mL | first compound 0.375 µg/mL | first compound 0.5 µg/mL | first compound 0.75 µg/mL | first compound 1.5 µg/mL
B. subtilis 168, partner 2 µg/mL | ≥ 1 | 0.985 | – | 0.992 | – | –
B. subtilis 168, partner 4 µg/mL | 0.947 | 0.934 | – | 0.957 | – | –
B. subtilis 168, partner 8 µg/mL | 0.906 | 0.924 | – | 0.879 | – | –
S. aureus DSM 20231 [1], partner 4 µg/mL | – | – | 0.977 | – | 0.971 | 0.969
S. aureus DSM 20231 [1], partner 8 µg/mL | – | – | 0.944 | – | 0.981 | 0.932
S. aureus DSM 20231 [1], partner 16 µg/mL | – | – | 0.842 | – | 0.877 | 0.882
S. aureus Newman, partner 4 µg/mL | – | – | 0.96 | – | 0.924 | 0.908
S. aureus Newman, partner 8 µg/mL | – | – | ≥ 1 | – | 0.94 | 0.917
S. aureus Newman, partner 16 µg/mL | – | – | 0.941 | – | 0.894 | 0.875

fitness, one replicate
Settings | first compound 0.375 µg/mL | first compound 0.75 µg/mL | first compound 1.5 µg/mL
S. aureus DSM 20231 [1], partner 32 µg/mL | 0.726 | 0.786 | 0.736
S. aureus DSM 20231 [1], partner 64 µg/mL | 0.0858 | 0.0864 | 0.0563
S. aureus Newman, partner 32 µg/mL | 0.575 | 0.596 | 0.501
S. aureus Newman, partner 64 µg/mL | 0.0802 | 0.0265 | 0.0316

O=C(N[C@H](CO)[C@H](O)c1ccc([N+](=O)[O-])cc1)C(Cl)Cl [Chloramphenicol] + CC(=O)Oc1cccc2c1C(=O)c1c(OC(C)=O)cc(C(=O)O)cc1C2=O [Diacerein]
Settings | Bliss interaction score
S. aureus DSM 20231 [2] | -0.41

CCc1oc2ccccc2c1C(=O)c1cc(Br)c(O)c(Br)c1 [Benzbromarone] + C1=CC(=CC(=C1)Cl)NN=C(C#N)C#N [CCCP]
Settings | Bliss interaction score
S. aureus DSM 20231 [2] | -0.103

CCC[C@@H]1C[C@@H](C(=O)N[C@@H]([C@H]2O[C@H](SC)[C@H](O)[C@@H](O)[C@H]2O)[C@H](C)Cl)N(C)C1 [Clindamycin] + N[C@@H]1CONC1=O [Cycloserine D]
fitness, B. subtilis 168, one replicate
Settings | first compound 0.0039 µg/mL | first compound 0.0078 µg/mL | first compound 0.0156 µg/mL
partner 0.125 µg/mL | 0.985 | 0.927 | 0.879
partner 0.25 µg/mL | 0.974 | 0.859 | 0.796
partner 0.5 µg/mL | ≥ 1 | 0.901 | 0.845

fitness
Settings | partner 0.125 µg/mL | partner 0.25 µg/mL | partner 0.375 µg/mL | partner 0.5 µg/mL | partner 0.75 µg/mL | partner 1.5 µg/mL
B. subtilis 168, first compound 0.0625 µg/mL | 0.592 | 0.512 | – | 0.549 | – | –
B. subtilis 168, first compound 0.125 µg/mL | 0.413 | 0.365 | – | 0.363 | – | –
B. subtilis 168, first compound 0.25 µg/mL | 0.396 | 0.348 | – | 0.329 | – | –
S. aureus DSM 20231 [1], first compound 0.0625 µg/mL | – | – | 0.0659 | – | 0.0748 | 0.0881
S. aureus DSM 20231 [1], first compound 0.125 µg/mL | – | – | 0.0216 | – | 0.0398 | 0.0593
S. aureus Newman, first compound 0.0312 µg/mL | – | – | 0.732 | – | 0.735 | 0.746
S. aureus Newman, first compound 0.125 µg/mL | – | – | 0.0953 | – | 0.115 | 0.103

N[C@@H]1CONC1=O [Cycloserine D] + C[C@@H]1O[C@@H]1P(=O)(O)O [Fosfomycin]
fitness
Settings | first compound 0.125 µg/mL | first compound 0.25 µg/mL | first compound 0.375 µg/mL | first compound 0.5 µg/mL | first compound 0.75 µg/mL | first compound 1.5 µg/mL
B. subtilis 168, partner 1.562 µg/mL | 0.71 | 0.666 | – | 0.679 | – | –
B. subtilis 168, partner 3.124 µg/mL | 0.608 | 0.583 | – | 0.592 | – | –
B. subtilis 168, partner 6.248 µg/mL | 0.479 | 0.504 | – | 0.453 | – | –
S. aureus DSM 20231 [1], partner 0.781 µg/mL | – | – | 0.724 | – | 0.703 | 0.764
S. aureus DSM 20231 [1], partner 1.562 µg/mL | – | – | 0.586 | – | 0.577 | 0.597
S. aureus DSM 20231 [1], partner 3.124 µg/mL | – | – | 0.451 | – | 0.471 | 0.481
S. aureus Newman, partner 0.781 µg/mL | – | – | 0.64 | – | 0.623 | 0.669
S. aureus Newman, partner 1.562 µg/mL | – | – | 0.516 | – | 0.518 | 0.514
S. aureus Newman, partner 3.124 µg/mL | – | – | 0.165 | – | 0.201 | 0.172

N[C@@H]1CONC1=O [Cycloserine D] + CN1C2=CC=CC=C2N=C3C1=CC=CC3=O [Pyocyanin]
fitness
Settings | first compound 0.125 µg/mL | first compound 0.25 µg/mL | first compound 0.375 µg/mL | first compound 0.5 µg/mL | first compound 0.75 µg/mL | first compound 1.5 µg/mL
B. subtilis 168, partner 1.25 µg/mL | 0.878 | 0.871 | – | 0.877 | – | –
B. subtilis 168, partner 2.5 µg/mL | 0.833 | 0.781 | – | 0.828 | – | –
B. subtilis 168, partner 5 µg/mL | 0.697 | 0.667 | – | 0.623 | – | –
S. aureus DSM 20231 [1], partner 1.25 µg/mL | – | – | 0.983 | – | 0.985 | 0.962
S. aureus DSM 20231 [1], partner 2.5 µg/mL | – | – | 0.884 | – | 0.875 | 0.865
S. aureus DSM 20231 [1], partner 5 µg/mL | – | – | 0.826 | – | 0.855 | 0.777
S. aureus Newman, partner 1.25 µg/mL | – | – | 0.85 | – | 0.856 | 0.868
S. aureus Newman, partner 2.5 µg/mL | – | – | 0.8 | – | 0.764 | 0.826
S. aureus Newman, partner 5 µg/mL | – | – | 0.457 | – | 0.378 | 0.42

N[C@@H]1CONC1=O [Cycloserine D] + CN(N=O)C(=O)N[C@@H](C=O)[C@@H](O)[C@H](O)[C@H](O)CO [Streptozotocin]
fitness
Settings | first compound 0.125 µg/mL | first compound 0.25 µg/mL | first compound 0.375 µg/mL | first compound 0.5 µg/mL | first compound 0.75 µg/mL | first compound 1.5 µg/mL
B. subtilis 168, partner 0.15 µg/mL | 0.991 | 0.979 | – | 0.975 | – | –
B. subtilis 168, partner 0.3 µg/mL | 0.963 | 0.98 | – | 0.931 | – | –
B. subtilis 168, partner 0.6 µg/mL | 0.984 | 0.988 | – | 0.958 | – | –
S. aureus DSM 20231 [1], partner 0.15 µg/mL | – | – | 0.822 | – | 0.823 | 0.788
S. aureus DSM 20231 [1], partner 0.3 µg/mL | – | – | 0.867 | – | 0.846 | 0.806
S. aureus DSM 20231 [1], partner 0.6 µg/mL | – | – | 0.609 | – | 0.649 | 0.655
S. aureus Newman, partner 0.15 µg/mL | – | – | 0.833 | – | 0.762 | 0.741
S. aureus Newman, partner 0.3 µg/mL | – | – | 0.665 | – | 0.674 | 0.674
S. aureus Newman, partner 0.6 µg/mL | – | – | 0.607 | – | 0.512 | 0.584
